From EP1737880B1, “17ALPHA-FLUORO-17BETA-HYDROXI[…], A METHOD FOR PRODUCTION THEREOF AND PHARMACEUTICAL COMPOSITIONS COMPRISING SAID COMPOUNDS” (Bayer Schering Pharma Aktiengesellschaft, priority 2004, dated 2005) come the findings set out here.

One experiment concerns the target T1, Progesteronrezeptor (Oryctolagus cuniculus, UniProt P06186).
T1 construct: Uterus-Cytosol, Kaninchen, geprimt; from tissue; host or cells: uterus cytosol of primed rabbits
T1 sequence (P06186 1-930): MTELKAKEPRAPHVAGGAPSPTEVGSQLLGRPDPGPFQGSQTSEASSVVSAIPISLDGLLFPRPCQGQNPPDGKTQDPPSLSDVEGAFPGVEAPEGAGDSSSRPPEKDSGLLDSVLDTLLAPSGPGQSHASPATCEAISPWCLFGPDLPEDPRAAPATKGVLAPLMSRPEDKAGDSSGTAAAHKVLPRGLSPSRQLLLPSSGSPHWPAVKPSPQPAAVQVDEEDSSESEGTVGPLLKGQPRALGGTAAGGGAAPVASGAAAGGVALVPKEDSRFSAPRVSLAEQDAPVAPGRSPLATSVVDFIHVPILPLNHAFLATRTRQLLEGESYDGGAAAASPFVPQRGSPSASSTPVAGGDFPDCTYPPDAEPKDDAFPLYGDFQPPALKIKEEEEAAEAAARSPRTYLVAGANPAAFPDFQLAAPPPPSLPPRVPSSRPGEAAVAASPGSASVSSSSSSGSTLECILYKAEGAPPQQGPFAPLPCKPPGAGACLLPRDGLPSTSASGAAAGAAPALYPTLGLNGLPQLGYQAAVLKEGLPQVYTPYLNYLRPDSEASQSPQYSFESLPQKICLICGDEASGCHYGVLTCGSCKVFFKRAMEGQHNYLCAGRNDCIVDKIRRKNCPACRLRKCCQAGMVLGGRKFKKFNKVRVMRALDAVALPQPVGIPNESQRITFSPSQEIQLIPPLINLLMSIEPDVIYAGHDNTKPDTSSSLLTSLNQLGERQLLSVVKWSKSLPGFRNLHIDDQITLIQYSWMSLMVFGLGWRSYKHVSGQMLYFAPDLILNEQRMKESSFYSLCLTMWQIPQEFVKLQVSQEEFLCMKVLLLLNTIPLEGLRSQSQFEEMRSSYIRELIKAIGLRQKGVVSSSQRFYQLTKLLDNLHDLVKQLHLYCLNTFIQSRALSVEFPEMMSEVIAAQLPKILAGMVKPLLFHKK
In words: Binding to the progesterone receptor (relative binding affinity, tracer 3H-ORG 2058). To be noted: Uterus-Cytosol, Kaninchen, geprimt, 0-4°C, 18 h, Referenzsubstanz Progesteron = 100%. An excerpt: Bindung der Verbindung I an den Progesteronrezeptor

The target in a further experiment is T2, 5α-Reduktase-Typ2 (Homo sapiens, UniProt P31213).
T2 construct: In Genitalhaut-Homogenaten unter optimierten Bedingungen bei pH 5.5; from tissue; host or cells: genital skin homogenate
T2 sequence (P31213 1-254): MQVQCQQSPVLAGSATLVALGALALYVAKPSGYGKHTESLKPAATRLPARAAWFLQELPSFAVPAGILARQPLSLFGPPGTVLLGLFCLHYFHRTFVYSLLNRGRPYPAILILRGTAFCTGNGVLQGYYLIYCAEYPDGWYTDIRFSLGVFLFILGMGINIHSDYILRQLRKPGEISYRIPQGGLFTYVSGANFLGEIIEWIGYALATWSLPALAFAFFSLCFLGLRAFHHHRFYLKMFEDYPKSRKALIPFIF
In words: 5α-reductase type 2 activity in genital skin homogenates. The format is biochemical. To be noted: Genitalhaut-Homogenate, optimised conditions, pH 5.5. From the text:
Nachfolgend sind beispielhafte Daten zur Progesteronrezeptorbindung, 5α-Reduktase-Typ2-Aktivität in Genitalhaut-Homogenaten und in vivo- Daten am Beispiel von (E)-17α-Fluor-3-oxo-estr-4-en-17β-carbaldehyd oxim aufgeführt

For another experiment, the target named is T3, PR-B (Homo sapiens, UniProt P06401).
T3 sequence (P06401 1-933): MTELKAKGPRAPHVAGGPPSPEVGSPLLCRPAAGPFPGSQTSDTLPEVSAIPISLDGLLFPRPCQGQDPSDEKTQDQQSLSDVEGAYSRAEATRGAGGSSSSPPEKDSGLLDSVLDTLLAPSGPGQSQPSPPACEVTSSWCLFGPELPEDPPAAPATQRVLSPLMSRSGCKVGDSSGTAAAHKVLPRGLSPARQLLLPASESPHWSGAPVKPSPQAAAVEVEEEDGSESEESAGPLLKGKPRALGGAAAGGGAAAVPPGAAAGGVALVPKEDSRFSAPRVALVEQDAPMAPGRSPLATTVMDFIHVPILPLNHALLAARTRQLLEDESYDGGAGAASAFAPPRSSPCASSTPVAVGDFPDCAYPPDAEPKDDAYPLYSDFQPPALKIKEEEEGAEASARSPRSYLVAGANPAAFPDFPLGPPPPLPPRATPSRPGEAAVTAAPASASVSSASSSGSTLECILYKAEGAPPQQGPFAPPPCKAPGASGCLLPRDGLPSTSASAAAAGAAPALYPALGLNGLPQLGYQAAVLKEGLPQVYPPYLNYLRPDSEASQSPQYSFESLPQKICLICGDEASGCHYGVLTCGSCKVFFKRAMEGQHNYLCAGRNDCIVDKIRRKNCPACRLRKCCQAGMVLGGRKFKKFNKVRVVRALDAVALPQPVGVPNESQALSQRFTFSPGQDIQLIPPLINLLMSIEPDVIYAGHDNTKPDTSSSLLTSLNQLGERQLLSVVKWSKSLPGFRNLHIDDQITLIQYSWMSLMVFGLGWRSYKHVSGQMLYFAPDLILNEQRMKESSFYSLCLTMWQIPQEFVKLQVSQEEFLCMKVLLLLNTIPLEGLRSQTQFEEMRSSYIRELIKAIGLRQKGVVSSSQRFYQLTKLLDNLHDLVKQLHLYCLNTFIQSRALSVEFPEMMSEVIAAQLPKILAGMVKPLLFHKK
Briefly: PR-B antagonism and agonism. The format is cell-based. From the text:
PR-B Antagonismus und Agonismus

The subject of another experiment is Maus. In words: Gestagenic activity in the pregnancy maintenance test, mouse. The format is in vivo.

One may read the IC50 as the midpoint of a concentration-inhibition curve. In the case of `C[C@]12CC[C@H]3[C@@H](CCC4=CC(=O)CC[C@@H]43)[C@@H]1CC[C@]2(F)/C=N/O` [Verbindung 7, (E)-17α-Fluor-3-oxo-estr-4-en-17β-carbaldehyd oxim], the “Relative Bindungsaffinität RBA[%]” value at Progesteronrezeptor is on record as 131 ± 9%. The IC50 against 5α-Reduktase-Typ2 worked out at 245 nM; on PR-B (antagonist mode, read-out: Antagonismus IC50), 0.339 nM. The EC50 on PR-B (agonist mode, read-out: Agonismus IC50) came out at 0.25 nM. Moreover, the “Rate der erhaltenen Graviditäten” value with Maus (Dosis 0,03 mg/Tier/Tag) is listed as 2/2; with Maus (Dosis 0,3 mg/Tier/Tag), 3/3; in the experiment on Maus (Dosis 0,003 mg/Tier/Tag), 0/3.
